From US20160251402A1, “MICROPEPTIDES AND USE OF SAME FOR MODULATING GENE EXPRESSION” (UNIVERSITE PAUL SABATIER TOULOUSE III, priority 2013, published 2016)
“Also recorded” adds a separate entry of the source.

Experiments:
[1] = system: HAM1 (accession No. MtGI9-TC114268); assay: Expression of the HAM1 gene in M. truncatula (qRT-PCR); assay type: in vivo, Medicago truncatula
Experimental: (§1) The surface of seeds of M truncatula was sterilized and they were left to germinate on agar plates for 5 days at 4° C. in the dark. The young shoots were then grown on 12-cm square plates filled with Fahraeus medium without nitrogen and containing 7.5 μM phosphate (Lauressergues et al., Plant J., 72(3): 512-22, 2012). The lateral roots were counted every day. In pots, the plants were watered every other day with modified Long Ashton medium with low phosphorus content (Balzergue et al., Journal of Experimental Botany, (62)1049-1060, 2011).
(§2) The peptides were synthesized by Eurogentec or Smartox-Biotech. MtmiPEP171b1 was resuspended in a solution of 40% water/50% acetonitrile/10% acetic acid (v/v/v), and the other peptides were resuspended in water.
(§3) The total RNA was extracted from roots of M. truncatula or from tobacco leaves using the extraction kit RNeasy Plant Mini Kit (Qiagen). […]
(§4) The mean values of the relative expression of the genes or of the production of lateral roots were analysed using the Student test or the Kruskal-Wallis test. […]
(§5) The composite plants having roots transformed with Agrobacterium rhizogenes were obtained by the method described in Boisson-Dernier et al. (Mol Plant-Microbe Interact, 18: 1269-1276, 2005). The transformed roots were verified and selected by observations of DsRED with a binocular fluorescence magnifier. […]

MtmiR171b = assay: Accumulation of pri-/pre-/mature MtmiR171b in transformed tobacco leaves; assay type: in vivo, Nicotiana benthamiana
Experimental: In order to determine whether the mechanism of regulation of the microRNAs is conserved in other plant species, the regulation of MtmiR171b by MtmiPEP171b1 was tested in a different cellular model. For this, MtmiR171b and MtmiPEP171b1 were introduced into tobacco leaves.
The accumulation of MtmiR171b was measured in tobacco leaves transformed in order to express MtmiR171b of Medicago truncatula starting from wild-type pri-miRNA capable of producing MtmiPEP171b1, or starting from a mutated version of pri-miRNA incapable of producing MtmiPEP171b1 (in which the start codon ATG of MtmiORF171b has been replaced with ATT) (FIG. 6 and FIG. 20).
The accumulation of pre-MtmiR171b was measured in tobacco leaves transformed in order to express MtmiR171b of Medicago truncatula alone (control), or additionally expressing the wild-type MtmiORF171b of Medicago truncatula (35SmiPEP171b1 ATG), or a mutated version of MtmiORF171b in which the start codon ATG has been replaced with ATT (35SmiPEP171b1 ATT) (FIG. 7 and FIG. 21).
The leaves were watered by spraying with the peptides using peptide solutions at different concentrations (0.01, 0.1, 1 μM), firstly 12 h before sampling and then a second time 30 min before sampling.
The total RNA was extracted from roots of M. truncatula or from tobacco leaves using the extraction kit RNeasy Plant Mini Kit (Qiagen). The reverse transcription was performed using the reverse transcriptase SuperScript II (Invitrogen) starting from 500 ng of total RNA. Three repetitions (n=3) were carried out, each with two technical repetitions. Each experiment was repeated from two to three times. The amplifications by qPCR were carried out using a LightCycler 480 System thermocycler (Roche Diagnostics) by the method described in Lauressergues et al. (Plant J., 72(3): 512-22, 2012).
The DNA fragments of interest were amplified with Pfu polymerase (Promega). The DNA fragments were cloned using the XhoI and NotI enzymes into a pPEX-DsRED plasmid for an overexpression under the control of the constitutive strong promoter 35S, and using the KpnI-NcoI enzymes into a pPEX GUS plasmid for the reporter genes, by the method described in Combier et al. (Genes & Dev, 22: 1549-1559, 2008).
The composite plants having roots transformed with Agrobacterium rhizogenes were obtained by the method described in Boisson-Dernier et al. (Mol Plant-Microbe Interact, 18: 1269-1276, 2005). The transformed roots were verified and selected by observations of DsRED with a binocular fluorescence magnifier. The control roots correspond to roots transformed with A. rhizogenes not containing the pPEX-DsRED vector. Transformation of the tobacco leaves was carried out by the method described in Combier et al. (Genes & Dev, 22: 1549-1559, 2008).

[2] = system: HAM2 (accession No. MtGI9-TC120850); assay: Expression of the HAM2 gene in M. truncatula (qRT-PCR); assay type: in vivo, Medicago truncatula
Experimental: as §1, §2, §3, §4, §5

[3] = plant in which MtmiPEP171b1 is overexpressed vs control plant
[4] = watering once daily for 5 days with peptide at 0.01, 0.1 or 1 μM vs control plant

## MLLHRLSKFCKIERDIVYIS (listed as Medicago truncatula) [MtmiPEP171b1]
[1]; [3]
  relative expression of HAM1: decrease in the expression of the HAM1 and HAM2 genes
[1]; [4]
  relative expression of HAM1: decrease in the expression of the HAM1 and HAM2 genes
MtmiR171b; tobacco co-transformed with empty vector, miPEP vector, ATT-mutated ORF or degenerate ORF
  relative expression of MtmiR171b: increases the expression of MtmiR171b
MtmiR171b; tobacco expressing MtmiR171b alone vs MtmiR171b and MtmiPEP171b1 (or ATT-mutated miORF)
  relative expression of pre-MtmiR171b: increases the expression of MtmiR171b
MtmiR171b; tobacco expressing MtmiR171b and MtmiPEP171b1 with or without protein tags (His, HA or GFP)
  relative expression of pre-MtmiR171b: increases the expression of MtmiR171b, and this effect is independent of the presence of tags
MtmiR171b; tobacco expressing MtmiR171b, peptide 0.1 μM sprayed twice, 12 h and 30 min before sampling
  relative expression of MtmiR171b: increase in the accumulation of MtmiR171b
MtmiR171b; tobacco expressing MtmiR171b, peptide 0.1 μM sprayed twice, 12 h and 30 min before sampling, listed as miPEP171b1
  relative expression of MtmiR171b: increases the accumulation
MtmiR171b; tobacco expressing MtmiR171b, treated with 0.1 μM of peptide
  relative expression of pre-MtmiR171b: increase in the accumulation
MtmiR171b; tobacco expressing MtmiR171b, treated with 0.1 μM of peptide, listed as miPEP171b1
  relative expression of pre-MtmiR171b: increases the accumulation
MtmiR171b; tobacco expressing pri-MtmiR171b vs mutated pri-MtmiR171b (ATG replaced with ATT, no translation of the miPEP)
  relative expression of MtmiR171b: marked decrease in the accumulation of miR171b; also recorded: marked decrease in the accumulation of MtmiR171b
MtmiR171b; tobacco expressing pri-MtmiR171b vs mutated pri-MtmiR171b (ATG replaced with ATT, no translation of the miPEP), listed as miPEP171b1
  relative expression of MtmiR171b: marked decrease in the accumulation of miR171b
[2]; [3]
  relative expression of HAM2: decrease in the expression of the HAM1 and HAM2 genes
[2]; [4]
  relative expression of HAM2: decrease in the expression of the HAM1 and HAM2 genes
